From ChEMBL document CHEMBL5137003, “Recent advancement in small molecules as HCV inhibitors” (Bioorg Med Chem, 2022)

Experiments:
Hepatitis C virus [1] = assay: Antiviral activity against HCV JFH-1 infected in Huh7.5.1 cells assessed as decrease in intracellular and extracellular HCV RNA level measured after 3 days by RT-qPCR assay; type: functional, organism-based, Hepacivirus hominis; conditions: JFH-1, Huh-7.5.1, 72 h
Hepatitis C virus [2] = assay: Inhibition of HCV replication in human Huh7.5 cells after 3 hrs by renilla luciferase assay; type: functional, cell-based, Hepacivirus hominis; conditions: Huh7.5, 3 h
[3] = Inhibition of Hepatitis C virus NS3 helicase measured by DNA unwinding based assay; design: species or system Hepacivirus hominis
Hepatitis C virus [4] = assay: Antiviral activity against HCV GT-3a; type: functional, organism-based, Hepacivirus hominis; conditions: subtype 3a
[5] = Inhibition of hepatitis C virus p7 ion channel; design: species or system Hepacivirus hominis
[6] = target: T1, Hepatitis C virus serine protease, NS3/NS4A (Hepatitis C virus, UniProt A3EZI9+D2K2A8); assay: Inhibition of HCV GT-1b NS3/4A protease measured by fluorescence assay; type: protein-complex assay, Hepacivirus hominis, subtype 1b
Hepatitis C virus [7] = assay: Inhibition of HCV replication; type: functional, Hepacivirus hominis
Hepatitis C virus [8] = assay: Antiviral activity against HCV GT-1b; type: functional, organism-based, Hepacivirus hominis; conditions: subtype 1b
[9] = target: T1, Hepatitis C virus serine protease, NS3/NS4A; assay: Inhibition of HCV GT-3a NS3/4A protease measured by fluorescence assay; type: protein-complex assay, Hepacivirus hominis, subtype 3a
Hepatitis C virus [10] = assay: Inhibition of HCV replicon cells; type: functional, Hepacivirus hominis
[11] = target: T1, Hepatitis C virus serine protease, NS3/NS4A; assay: Inhibition of HCV GT-3a NS3/4A protease; type: protein-complex assay, Hepacivirus hominis, subtype 3a
Hepatitis C virus [12] = assay: Antiviral activity against HCV JFH-1 infected in Huh7.5 cells and measured after 4 days; type: functional, organism-based, Hepacivirus hominis; conditions: JFH-1, Huh7.5, 96 h
Hepatitis C virus [13] = assay: Inhibition of HCV replication in human Huh7.5 cells cultured with SGR-Neo-RLuc-JFH1-2A replicon celIs measured after 72 hrs by luciferase assay; type: functional, cell-based, Hepacivirus hominis; conditions: JFH-1, Huh7.5, 72 h
[14] = target: T1, Hepatitis C virus serine protease, NS3/NS4A; assay: Inhibition of HCV GT1b recombinant NS3/4A protease using Ac-Glu-Glu-Val-Val-Ala-Cys-AMC as substrate and measured by fluorescence based assay; type: protein-complex assay, Hepacivirus hominis, subtype 1b
[15] = Inhibition of HCV GT1b full-length NS3/4A protease D168A mutant using Ac-Glu-Glu-Val-Val-Ala-Cys-AMC as substrate and measured by fluorescence based assay; design: species or system Hepacivirus hominis, subtype 1b
Hepatitis C virus [16] = assay: Antiviral activity against HCV infected in Huh-7.5.1 cells assessed as inhibition of HCV production measured after 24 hrs by titration assay; type: functional, organism-based, Hepacivirus hominis; conditions: Huh-7.5.1, 24 h
[17] = Inhibition of Cy5-dT15 ssDNA to Hepatitis C virus subtype 1b (Con1) NS3 helicase measured by fluorescence polarization (FP) based ssDNA binding assay; design: species or system Hepacivirus hominis
Hepatitis C virus [18] = assay: Antiviral activity against HCV GT-1b infected in Huh-5-2 cells and measured after 24 hrs by luciferase assay; type: functional, organism-based, Hepacivirus hominis; conditions: subtype 1b, Huh-5-2, 24 h
[19] = test system: Internal ribosome entry site (IRES); assay: Disruption of hepatitis C virus-internal ribosome entry site (IRES) RNA base stacking interaction; design: species or system Hepacivirus hominis
Hepatitis C virus [20] = assay: Antiviral activity against HCV GT-1b infected in Huh-5-2 cells and measured after 72 hrs by luciferase assay; type: functional, organism-based, Hepacivirus hominis; conditions: subtype 1b, Huh-5-2, 72 h
Hepatitis C virus [21] = assay: Antiviral activity against HCV GT-3a infected in Huh-5-2 cells and measured after 72 hrs by luciferase assay; type: functional, organism-based, Hepacivirus hominis; conditions: subtype 3a, Huh-5-2, 72 h
Hepatitis C virus [22] = assay: Antiviral activity against HCV GT-3a (S52) assessed as inhibition of viral replication measured by renilla luciferase assay; type: functional, organism-based, Hepacivirus hominis; conditions: subtype 3a
Hepatitis C virus [23] = assay: Antiviral activity against HCV assessed as inhibition of viral fusion and replication at attachment stage; type: functional, organism-based, Hepacivirus hominis
[24] = Inhibition of Hepatitis C virus NS3 protease; design: species or system Hepacivirus hominis
[25] = target: RNA-directed RNA polymerase (Hepacivirus hominis, UniProt O39930); assay: Inhibition of Hepatitis C virus NS5B RNA-dependent-RNA-polymerase
Hepatitis C virus [26] = assay: Antiviral activity against HCV GT-1a expressing NS5B C316Y mutant variant; type: functional, organism-based, Hepacivirus hominis; conditions: subtype 1a
Hepatitis C virus [27] = assay: Antiviral activity against HCV GT-1a expressing NS5B S365A mutant variant; type: functional, organism-based, Hepacivirus hominis; conditions: subtype 1a
Hepatitis C virus [28] = assay: Antiviral activity against HCV GT-4a; type: functional, organism-based, Hepacivirus hominis; conditions: subtype 4a

Cc1cc(Oc2ccc(N)cn2)ccc1Cl
EC50 (Hepatitis C virus [1]): 80 nM

O=C(NCc1ccco1)c1ccc2[nH]c(COc3ccc(C45CC6CC(CC(C6)C4)C5)cc3)nc2c1
EC50 (Hepatitis C virus [2]): 1500 nM

COc1ccc2c(c1)c(C=C1C(=O)NC(=S)NC1=O)cn2C(=O)c1cccc2ccccc12
IC50 [3]: 23500 nM

COC(=O)N[C@H](C(=O)N1CCC[C@H]1c1nc(C#CC#Cc2ccc(-c3c[nH]c([C@@H]4CCCN4C(=O)[C@@H](NC(=O)OC)C(C)C)n3)cc2)c[nH]1)C(C)C
EC50 (Hepatitis C virus [4]): 2.45 nM

O=C1CCC(C23CC4CC(CC(C4)C2)C3)=NN1c1ccccc1
IC50 [5]: 520 nM

Cc1cc(NC(=O)Cc2csc(NS(=O)(=O)c3ccccc3)n2)ccc1Br
IC50 [6]: 2200 nM

CCN(CC)c1ccc(Oc2ccc(-c3[nH]c4cccc(F)c4c(=O)c3C)cc2F)cc1
EC50 (Hepatitis C virus [7]): 5 nM

O=C(N[C@@H](C(=O)N1CCC[C@H]1c1ncc(-c2ccc(-c3ccc(-c4cnc([C@@H]5CCCN5C(=O)[C@H](NC(=O)C5CC5)c5ccccc5)s4)cc3)cc2)s1)c1ccccc1)C1CC1
EC50 (Hepatitis C virus [8]): 0.003 nM

COc1ccc2c(c1)c(C=C1C(=O)NC(=S)NC1=O)cn2C(=O)c1ccc2ccccc2c1
IC50 [3]: 21400 nM

Cc1ccc(S(=O)(=O)Nc2ccccc2C(=O)Nc2nc3c(Cl)ccc(Cl)c3s2)cc1
IC50 [9]: 1600 nM

O=C1NC(=S)NC(=O)C1=Cc1cn(C(=O)c2ccc3ccccc3c2)c2ccccc12
IC50 [3]: 21600 nM

COC(=O)N[C@H](C(=O)N1CCC[C@H]1c1ncc(-c2ccc(C#CC#Cc3cnc([C@@H]4CCCN4C(=O)[C@H](NC(=O)OC)c4ccccc4)[nH]3)c(-c3cccc(F)c3F)c2)[nH]1)C(C)C
IC50 (Hepatitis C virus [4]): 0.016 nM

O=C(Nc1ccn([C@@H]2O[C@H](CO)[C@@H](O)C2(F)F)c(=O)n1)C1Cc2ccccc2C1
IC50 (Hepatitis C virus [10]): 10 nM

[2H]C([2H])([2H])Oc1cc2ccnc(O[C@@H]3C[C@H]4C(=O)N[C@]5(C(=O)NS(=O)(=O)C6(C)CC6)C[C@H]5/C=C/CC[C@@H](C)C[C@@H](CC)[C@H](NC(=O)OC(C)(C)C(F)(F)F)C(=O)N4C3)c2cc1F
IC50 [11]: 4.8 nM

CCC[C@H](NC(=O)[C@@H]1[C@H]2CCC[C@H]2CN1C(=O)[C@@H](NC(=O)[C@@H](NC(=O)c1cnc(C(=O)NCCOCCOCCOc2cc3c4c(cccc4c2)C(=O)N(C2CCC(=O)NC2=O)C3=O)cn1)C1CCCCC1)C(C)(C)C)C(=O)C(=O)NC1CC1 (stereo partly drawn)
IC50 (Hepatitis C virus [12]): 748 nM

O=C(Nc1ccc(C2=NCCN2)cc1)c1cc(C(=O)Nc2ccc(C3=NCCN3)cc2)cc(C(=O)Nc2ccc(C3=NCCN3)cc2)c1
IC50 (Hepatitis C virus [13]): 14000 nM

CC(C)c1ccc(NC(=O)N[C@@H](Cc2c[nH]c3ccccc23)C(=O)NCCCN2CCCCC2)cc1
IC50 [14]: 4600 nM
IC50 [15]: 5980 nM

CC1(NCc2nnc(-c3cc(O)cc(O)c3)[nH]2)C2CC3CC(C2)CC1C3 (stereo not drawn)
IC50 (Hepatitis C virus [16]): 6420 nM

CCCCC(O)c1cccc(=O)o1 (stereo not drawn)
IC50 [17]: 2800 nM

CCOC(=O)N[C@@H](CC(C)C)C(=O)N1CCC[C@H]1C(=O)Nc1cccc(C#CC#Cc2cccc(NC(=O)[C@@H]3CCCN3C(=O)[C@H](CC(C)C)NC(=O)OCC)c2)c1
EC50 (Hepatitis C virus [18]): 0.0399 nM

CN1CCN(CCCNc2nc3cc([N+](=O)[O-])ccc3nc2NCc2ccc(NC(=O)/C=C/c3ccc(N(C)C)cc3)cc2)CC1
EC50 [19]: 67000 nM

CCOC(=O)N[C@@H](C(=O)N1CCC[C@@H]1C(=O)Nc1ccc2c(c1)Cc1cc(NC(=O)[C@H]3CCCN3C(=O)[C@H](NC(=O)OCC)c3ccccc3)ccc1-2)c1ccccc1
EC50 (Hepatitis C virus [20]): 0.036 nM
EC50 (Hepatitis C virus [21]): 1.2 nM

CCCCOC(=O)N[C@H](C(=O)N1CCC[C@H]1C(=O)Nc1ccc(-c2ccc(NC(=O)[C@@H]3CCCN3C(=O)[C@@H](NC(=O)OCCCC)c3ccccc3)cc2)cc1)c1ccccc1
EC50 (Hepatitis C virus [8]): 0.0067 nM

COc1ccc(N/C=C2\C(=O)N(Cc3ccccc3)c3ccccc32)cc1
EC50 (Hepatitis C virus [4]): 738 nM

CC(C)(C)OC(=O)c1c(NC(=O)NCc2c(C(F)(F)F)sc3c2CCNC3)sc2c1CCCC2
EC50 (Hepatitis C virus [22]): 0.21 nM

COc1ccc2cc3[n+](cc2c1OC)CCc1cc2c(cc1-3)OCO2 [BERBERINE]
EC50 (Hepatitis C virus [23]): 7870 nM

O=C(O[C@@H]1O[C@@H]2COC(=O)c3cc(O)c(O)c(O)c3-c3c(cc(O)c(O)c3O)C(=O)O[C@H]([C@H]1O)[C@@H]2O)c1cc(O)c(O)c(O)c1 [CORILAGIN]
IC50 [24]: < 1000 nM
IC50 [25]: 20000 nM

CNC(=O)c1c(-c2ccc(F)cc2)oc2cc(N(C)S(C)(=O)=O)c(-c3ccc4c(n3)-c3cc5c(F)cccc5n3CO4)cc12 [MK-8876]
EC50 (Hepatitis C virus [26]): 2.3 nM
EC50 (Hepatitis C virus [27]): 1 nM

COC(=O)N[C@H](C(=O)N1CCC[C@H]1C(=O)Nc1ccc([C@@H]2CC[C@@H](c3ccc(NC(=O)[C@@H]4CCCN4C(=O)[C@@H](NC(=O)OC)C(C)C)cc3)N2c2ccc(C(C)(C)C)cc2)cc1)C(C)C [OMBITASVIR]
EC50 (Hepatitis C virus [28]): 0.00171 nM
